Laboratory results taken from patent US10246455B2, “Histone deacetylase inhibitors” (Taipei Medical University, priority 2014, dated 2019).

What was measured:
[1] = test system: human glioblastoma (U87MG or GBM8401) cells; test: Cell viability in human glioblastoma in vitro (MTT); type: cell-based; conditions: U-87 MG, U87MG or GBM8401, 30 uM, read-out: reduction of the cell viability
Experimental: U87MG human glioblastoma cell line was treated with Compound 7 and analyzed following the procedure described below.
Cell viability was assessed by an MTT assay. Briefly, cells were incubated with 0.25 mg/mL MTT (Sigma) at 37° C. for 1 hour and the MTT fomazan were measured spectrophotometrically (μQuant, Bio-Tek) at 595 nm after dissolution of the crystals in DMSO.

[2] = test system: A549 (non-small-cell lung carcinoma); test: IC50 in human cancer cell lines (inhibiting HDAC): A549; conditions: Homo sapiens, A549, read-out: IC50, inhibiting HDAC in human cancer cell lines
HDAC1-10 = test: SDS-PAGE and western blot analysis: HDAC1-10 in PC3 cells; type: cell-based, human; conditions: 48 hours
Experimental: More specifically, cells in the logarithmic phase were initially seeded at a density of 1×10^6 in 100 mm^2 dishes. […] IC50 indicia of compound in vitro potency) for the indicated times (i.e., 24 and 48 hours), adherent cells were collected for protein extract preparation. Briefly, cells were lysed with the cell lysis reagent CelLytic™ M (Sigma-Aldrich) containing 1 mM DTT, 1 mM PMSF and protease inhibitors for whole-cell lysate preparation. Equal amounts of lysate (on a protein basis) were then differentiated using the SDS-PAGE, blotted on PVDF membranes, conjugated with various specific primary antibodies, and then probed with appropriate secondary antibodies. The immunoreactive bands were detected using the ECL method and visualized on Kodak Bio-MAX MR film. Proteins from cells were extracted and subjected to the western blotting analysis. β-Actin was used as an internal control. The deacetylase enzyme assay was based on a homogeneous fluorescence release assay. […] After fluorophore from the deacetylated substrates, fluorescent signal was detected.

[3] = test system: HDACs (p21, p27, histone, and α-tubulin acetylation) in the PC3 xenograft model; test: In vivo HDAC inhibitory assay, PC3 xenograft; conditions: 25 mg/kg, oral, PC3 xenograft mice
Experimental: Subcutaneous inoculation of 5×10^6 PC3 cells in specific pathogen-free male athymic mice (strain BALB/cAnN.Cg-Foxn1nu/CrlNarl) from the National Laboratory Animal Center, Taiwan, was applied. The mice were subsequently fed under specific pathogen-free conditions and provided with sterile water and food. […] Tumor samples were obtained and frozen in liquid nitrogen before storage in −80° C. Tumor proteins were extracted and subjected to the Western blotting analysis. β-Actin was used as an internal control.

BJAB (B cell lymphoma) = test: IC50 against human cancer cell lines: BJAB; conditions: read-out: IC50 ± SD against human cancer cell lines
H9 (T cell lymphoma) = test: IC50 against human cancer cell lines: H9; conditions: read-out: IC50 ± SD against human cancer cell lines
[4] = test system: LNCaP-R1 (prostate carcinoma); test: IC50 against human cancer cell lines: LNCaP-R1; conditions: read-out: IC50 ± SD against human cancer cell lines
Experimental: (§1) More specifically, the IC50 values of test compounds were determined by carrying out a fluorimetric histone deacetylase assay following the manufacturer's instructions. For a pan-HDAC assay, HeLa nuclear extracts were used as a source of histone deacetylase (BioVision Inc.). Histone deacetylase isomer inhibition assays were conducted using purified recombinant histone deacetylase proteins of the various isomers (BPS Bioscience Inc.). Reactions were performed in 0.1 mol/L KCl, 20 mmol/L HEPES/NaOH at pH 7.9, 20% glycerol, 0.2 mmol/L DTA, 0.5 mmol/L DTT, and 0.5 mmol/L phenylmethylsulfonylfluoride. […] Reactions were carried out in triplicate for each test compound. Each point represented the mean±SD of replicates.

SCC15 (tongue carcinoma) = test: IC50 against human cancer cell lines: SCC15; conditions: SCC-15, read-out: IC50 ± SD against human cancer cell lines
[5] = test system: RWPE-1 (normal: prostate); test: IC50 against cell lines: RWPE-1; conditions: Homo sapiens, RWPE-1, read-out: IC50 ± SD against human cancer cell lines
KB-L30 (KB-resistant) = test: IC50 against human cancer cell lines: KB-L30; conditions: read-out: IC50 ± SD against human cancer cell lines
Experimental: as §1

[6] = test system: HUVEC (normal: endothelial); test: IC50 against cell lines: HUVEC; conditions: Homo sapiens, read-out: IC50 ± SD against human cancer cell lines
[7] = test system: LNCaP-104 (prostate carcinoma); test: IC50 against human cancer cell lines: LNCaP-104; conditions: read-out: IC50 ± SD against human cancer cell lines
[8] = test system: histone and α-tubulin acetylation in MDA-MD-231 breast carcinoma; test: Western blot: acetylation in MDA-MD-231 cells; type: cell-based, human
Experimental: More specifically, cells in the logarithmic phase were initially seeded at a density of 1×10^6 in 100 mm^2 dishes. […] Briefly, cells were lysed with the cell lysis reagent CelLytic™ M (Sigma-Aldrich) containing 1 mM DTT, 1 mM PMSF and protease inhibitors for whole-cell lysate preparation. Equal amounts of lysate (on a protein basis) were then differentiated using the SDS-PAGE, blotted on PVDF membranes, conjugated with various specific primary antibodies, and then probed with appropriate secondary antibodies. The immunoreactive bands were detected using the ECL method and visualized on Kodak Bio-MAX MR film.
Proteins from cells were extracted and subjected to the western blotting analysis. β-Actin was used as an internal control. The deacetylase enzyme assay was based on a homogeneous fluorescence release assay. […] After fluorophore from the deacetylated substrates, fluorescent signal was detected.

| SMILES | cytotoxicity at 30 µM [1] [%] | IC50 [2] [nM] | inhibition of HDAC1-10 activities in PC3 cells (HDAC1-10) | inhibiting HDACs in vivo (p21, p27, histone, and α-tubulin acetylation) [3] | IC50 (BJAB (B cell lymphoma)) [nM] | IC50 (H9 (T cell lymphoma)) [nM] | IC50 [4] [nM] | IC50 (SCC15 (tongue carcinoma)) [nM] | IC50 [5] [nM] | IC50 (KB-L30 (KB-resistant)) [nM] | IC50 [6] [nM] | IC50 [7] [nM] | histone and α-tubulin acetylation [8] |
| --- | --- | --- | --- | --- | --- | --- | --- | --- | --- | --- | --- | --- | --- |
| O=C(/C=C/c1cccc(S(=O)(=O)n2ccc3cccnc32)c1)NO [Compound 7, (E)-3-(3-(1H-Pyrrolo[2,3-b]pyridin-1-ylsulfonyl)phenyl)-N-hydroxyacrylamide] | ~70 | 1330 ± 190 | inhibited HDAC1-10 activities in PC3 cells in a concentration-dependent manner | effective |  |  |  |  |  |  |  |  |  |
| COc1ccc(S(=O)(=O)N2CCc3cc(/C=C/C(=O)NO)cnc32)cc1 [Compound 5b, (E)-N-hydroxy-3-(1-(4-methoxyphenylsulfonyl)-2,3-dihydro-1H-pyrrolo[2,3-b]pyridin-5-yl)acrylamide] |  |  |  |  | 161 ± 20.3 | 55.4 ± 7.8 | 150 ± 30 | 176 ± 63.9 | 240 ± 108 | 175 ± 26.8 | 62 ± 2.8 | 180 ± 70 | induced histone and α-tubulin acetylation |
